Reference: US20180141939A1, “SOLID FORMS OF A BET INHIBITOR” (Gilead Sciences, Inc., priority 2016, published 2018)

How the values were obtained:
Assay type in all cases: physicochemical
[1] = Relative stability of solid forms (competitive slurries); conditions: statement in words
[2] = Solid-state chemical stability at various storage conditions
[3] = Kinetic aqueous solubility / solubility in water of salt and co-crystal forms; conditions: aqueous
[4] = Approximate solubility in 1:1 (v/v) binary solvents
Source text: (§1) In some embodiments, Compound I phosphate Form I, once formed, e.g., via the reactive crystallization methods disclosed herein, may be recrystallized from a variety of single solvents or binary solvent systems (e.g., solvent/anti-solvent systems) to promote desired physical characteristics such as crystal size. Recrystallization of Compound I phosphate Form I may occur with or without the addition of Compound I phosphate Form I seed material. The single solvents and binary solvent systems in which Compound I phosphate Form I may be recrystallized include, but are not limited to, MeOH, MeOH/EtOAc, DMA/MeCN, DMAc/toluene, DMF/MeCN, DMAc/MeCN, DMF/EtOAc, DMF/toluene, DMSO/MeCN, DMSO/MeCN, DMSO/IPA, NMP/MeCN, NMP/IPA, and NMP/EtOAc. A summary of the approximate solubility of Compound I phosphate Form I in various single solvents and binary solvent systems is provided in Tables I and II, respectively.

[5] = Dissolution in 50 mM sodium acetate solution, pH 5; conditions: pH of 5
Description: The dissolution of […] and […] was also evaluated in a 50 mM sodium acetate solution at a pH of 5 (FIG. 92).

[6] = Approximate solubility in single solvents
Source text: as §1

SMILES: Cc1noc(C)c1-c1cc(C(O)(c2ccccn2)c2ccccn2)c2nc(C3CC3)[nH]c2c1 [Compound I phosphate Form I, (2-cyclopropyl-6-(3,5-dimethylisoxazol-4-yl)-1H-benzo[d]imidazol-4-yl)di(pyridin-2-yl)methanol]
- thermodynamic / physical stability of the solid form [1]: most thermodynamically stable form of Compound I phosphate in most solvents
- % AN ([2]; 4° C., 1 month): 97.1%
- % LS ([2]; 4° C., 1 month): 100.8%
- % AN ([2]; 25° C./60% RH, 1 month): 97.1%
- % LS ([2]; 25° C./60% RH, 1 month): 100.8%
- % AN ([2]; 40° C./75% RH, 1 month): 97.2%
- % LS ([2]; 40° C./75% RH, 1 month): 100.7%
- % AN ([2]; 40° C./75% RH, open, 1 month): 97.1%
- % LS ([2]; 40° C./75% RH, open, 1 month): 100.0%
- % AN ([2]; 60° C., 1 month): 97.1%
- % LS ([2]; 60° C., 1 month): 100.7%
- % AN ([2]; Initial Time): 97.1%
- chemical stability ([2]; up to about 40° C./75% RH for about 3 months): chemically stable
- chemical stability ([2]; various conditions for about 1 month): chemically stable
- % AN ([2]; −20° C., 1 month): 96.9%
- % LS ([2]; −20° C., 1 month): 100.9%
- kinetic aqueous solubility [3]: about 3 mg/mL
- Approximate Solubility ([4]; DMAc/2-MeTHF 1:1 (v/v), 50° C.): ~17.2 mg-solid/ml-solvent
- Approximate Solubility ([4]; DMAc/Acetone 1:1 (v/v), 50° C.): ~11.3 mg-solid/ml-solvent
- Approximate Solubility ([4]; DMAc/EtOAc 1:1 (v/v), 80° C.): ~10.8 mg-solid/ml-solvent
- Approximate Solubility ([4]; DMAc/IPA 1:1 (v/v), 80° C.): ~21 mg-solid/ml-solvent
- Approximate Solubility ([4]; DMAc/IPAc 1:1 (v/v), 50° C.): ~7.7 mg-solid/ml-solvent
- Approximate Solubility ([4]; DMAc/MIBK 1:1 (v/v), 50° C.): ~15 mg-solid/ml-solvent
- Approximate Solubility ([4]; DMAc/MeCN 1:1 (v/v), 50° C.): ~11.5 mg-solid/ml-solvent
- Approximate Solubility ([4]; DMF/2-MeTHF 1:1 (v/v), 50° C.): ~14.3 mg-solid/ml-solvent
- Approximate Solubility ([4]; DMF/Acetone 1:1 (v/v), 50° C.): ~19.5 mg-solid/ml-solvent
- Approximate Solubility ([4]; DMF/EtOAc 1:1 (v/v), 50° C.): ~10.8 mg-solid/ml-solvent
- Approximate Solubility ([4]; DMF/IPA 1:1 (v/v), 50° C.): ~14 mg-solid/ml-solvent
- Approximate Solubility ([4]; DMF/IPAc 1:1 (v/v), 50° C.): ~13.7 mg-solid/ml-solvent
- Approximate Solubility ([4]; DMF/MIBK 1:1 (v/v), 80° C.): ~6 mg-solid/ml-solvent
- Approximate Solubility ([4]; DMF/MIBK 1:1 (v/v), cell spans the 20° C. and 50° C. columns): remained a thin slurry
- Approximate Solubility ([4]; DMF/MeCN 1:1 (v/v), 50° C.): ~11 mg-solid/ml-solvent
- Approximate Solubility ([4]; DMSO/2-MeTHF 1:1 (v/v), 20° C.): >51.5 mg-solid/ml-solvent
- Approximate Solubility ([4]; DMSO/2-MeTHF 1:1 (v/v), 50° C.): >>51.5 mg-solid/ml-solvent
- Approximate Solubility ([4]; DMSO/2-MeTHF 1:1 (v/v), 80° C.): >>>51.5 mg-solid/ml-solvent
- Approximate Solubility ([4]; DMSO/Acetone 1:1 (v/v), 20° C.): >30 mg-solid/ml-solvent
- Approximate Solubility ([4]; DMSO/Acetone 1:1 (v/v), 50° C.): >>30 mg-solid/ml-solvent
- Approximate Solubility ([4]; DMSO/Acetone 1:1 (v/v), 80° C.): >>>30 mg-solid/ml-solvent
- Approximate Solubility ([4]; DMSO/EtOAc 1:1 (v/v), 50° C.): >51.5 mg-solid/ml-solvent
- Approximate Solubility ([4]; DMSO/EtOAc 1:1 (v/v), 80° C.): >>51.5 mg-solid/ml-solvent
- Approximate Solubility ([4]; DMSO/IPA 1:1 (v/v), 80° C.): >41 mg-solid/ml-solvent
- Approximate Solubility ([4]; DMSO/IPAc 1:1 (v/v), 20° C.): >32 mg-solid/ml-solvent
- Approximate Solubility ([4]; DMSO/IPAc 1:1 (v/v), 50° C.): >>32 mg-solid/ml-solvent
- Approximate Solubility ([4]; DMSO/IPAc 1:1 (v/v), 80° C.): >>>32 mg-solid/ml-solvent
- Approximate Solubility ([4]; DMSO/MIBK 1:1 (v/v), 50° C.): >50.5 mg-solid/ml-solvent
- Approximate Solubility ([4]; DMSO/MIBK 1:1 (v/v), 80° C.): >>50.5 mg-solid/ml-solvent
- Approximate Solubility ([4]; DMSO/MeCN 1:1 (v/v), 50° C.): >33.5 mg-solid/ml-solvent
- Approximate Solubility ([4]; DMSO/MeCN 1:1 (v/v), 80° C.): >>33.5 mg-solid/ml-solvent
- Approximate Solubility ([4]; HOAC/2-MeTHF 1:1 (v/v), 80° C.): ~15.3 mg-solid/ml-solvent
- Approximate Solubility ([4]; HOAC/Acetone 1:1 (v/v), 50° C.): >43 mg-solid/ml-solvent
- Approximate Solubility ([4]; HOAC/Acetone 1:1 (v/v), 80° C.): >>43 mg-solid/ml-solvent
- Approximate Solubility ([4]; HOAC/EtOAc 1:1 (v/v), 50° C.): ~13.8 mg-solid/ml-solvent
- Approximate Solubility ([4]; HOAC/EtOAc 1:1 (v/v), 80° C.): >41.5 mg-solid/ml-solvent
- Approximate Solubility ([4]; HOAC/IPA 1:1 (v/v), 80° C.): >44.5 mg-solid/ml-solvent
- Approximate Solubility ([4]; HOAC/IPAc 1:1 (v/v), 50° C.): ~8.3 mg-solid/ml-solvent
- Approximate Solubility ([4]; HOAC/IPAc 1:1 (v/v), 80° C.): >8.3 mg-solid/ml-solvent
- Approximate Solubility ([4]; HOAC/MIBK 1:1 (v/v), 50° C.): ~22 mg-solid/ml-solvent
- Approximate Solubility ([4]; HOAC/MIBK 1:1 (v/v), 80° C.): >22 mg-solid/ml-solvent
- Approximate Solubility ([4]; HOAC/MeCN 1:1 (v/v), 20° C.): >30.5 mg-solid/ml-solvent
- Approximate Solubility ([4]; HOAC/MeCN 1:1 (v/v), 50° C.): >>30.5 mg-solid/ml-solvent
- Approximate Solubility ([4]; HOAC/MeCN 1:1 (v/v), 80° C.): >>>30.5 mg-solid/ml-solvent
- Approximate Solubility ([4]; NMP/2-MeTHF 1:1 (v/v), 20° C.): ~12 mg-solid/ml-solvent
- Approximate Solubility ([4]; NMP/2-MeTHF 1:1 (v/v), 80° C.): ~24 mg-solid/ml-solvent
- Approximate Solubility ([4]; NMP/Acetone 1:1 (v/v), 50° C.): >24 mg-solid/ml-solvent
- Approximate Solubility ([4]; NMP/Acetone 1:1 (v/v), 80° C.): >>24 mg-solid/ml-solvent
- Approximate Solubility ([4]; NMP/IPAc 1:1 (v/v), 50° C.): ~15 mg-solid/ml-solvent
- Approximate Solubility ([4]; NMP/IPAc 1:1 (v/v), 80° C.): >44 mg-solid/ml-solvent
- Approximate Solubility ([4]; NMP/MeCN 1:1 (v/v), 80° C.): >27.5 mg-solid/ml-solvent
- dissolution [5]: dissolve rapidly and maintain solubility for about 24 hours
- Approximate Solubility ([6]; 1,4-dioxane, 20-80° C.): remained a slurry
- Approximate Solubility ([6]; 1-Propanol, 20-80° C.): remained a slurry
- Approximate Solubility ([6]; 2-Butanol, 20-80° C.): remained a slurry
- Approximate Solubility ([6]; 2-MeTHF, 20° C.): 0.64 mg-solid/ml-solvent
- Approximate Solubility ([6]; 2-Propanol/IPA, 20° C.): 1.02 mg-solid/ml-solvent
- Approximate Solubility ([6]; Acetic Acid, 20° C.): ~190 mg-solid/ml-solvent
- Approximate Solubility ([6]; Acetic Acid, 50° C.): >190 mg-solid/ml-solvent
- Approximate Solubility ([6]; Acetic Acid, 80° C.): >>190 mg-solid/ml-solvent
- Approximate Solubility ([6]; Acetone, 20° C.): 0.48 mg-solid/ml-solvent
- Approximate Solubility ([6]; Acetonitrile, 20° C.): 0.23 mg-solid/ml-solvent
- Approximate Solubility ([6]; DCM (form changes), 20° C.): 1.54 mg-solid/ml-solvent
- Approximate Solubility ([6]; DMAc, 50° C.): >78 mg-solid/ml-solvent
- Approximate Solubility ([6]; DMAc, 80° C.): >>78 mg-solid/ml-solvent
- Approximate Solubility ([6]; DMF, 50° C.): <70 mg-solid/ml-solvent
- Approximate Solubility ([6]; DMF, 80° C.): >70 mg-solid/ml-solvent
- Approximate Solubility ([6]; DMSO, 50° C.): >185 mg-solid/ml-solvent
- Approximate Solubility ([6]; DMSO, 80° C.): >>185 mg-solid/ml-solvent
- Approximate Solubility ([6]; EtOH/water, 20° C.): 22.7 mg-solid/ml-solvent
- Approximate Solubility ([6]; Ethanol, 20° C.): 2.46 mg-solid/ml-solvent
- Approximate Solubility ([6]; Ethyl acetate, 20° C.): 0.45 mg-solid/ml-solvent
- Approximate Solubility ([6]; Heptane, 20° C.): <LOD
- Approximate Solubility ([6]; Heptane, cell spans the 50° C. and 80° C. columns): remained a slurry
- Approximate Solubility ([6]; Hexane, 20-80° C.): API adhered to vial walls
- Approximate Solubility ([6]; Isopropyl acetate, 20° C.): 0.37 mg-solid/ml-solvent
- Approximate Solubility ([6]; MEK, 20° C.): 2.14 mg-solid/ml-solvent
- Approximate Solubility ([6]; MIBK, 20° C.): 0.31 mg-solid/ml-solvent
- Approximate Solubility ([6]; MTBE, 20° C.): 0.16 mg-solid/ml-solvent
- Approximate Solubility ([6]; Methanol, 20° C.): 12.56 mg-solid/ml-solvent
- Approximate Solubility ([6]; NMP, 50° C.): >135 mg-solid/ml-solvent
- Approximate Solubility ([6]; NMP, 80° C.): >>135 mg-solid/ml-solvent
- Approximate Solubility ([6]; THF, 20° C.): 0.48 mg-solid/ml-solvent
- Approximate Solubility ([6]; Toluene, 20° C.): 1.34 mg-solid/ml-solvent
- Approximate Solubility ([6]; Water, 20° C.): 12.16 mg-solid/ml-solvent
